Results published in ChEMBL document CHEMBL1201861, “Genomics of Drug Sensitity in Cancer screening data, Wellcome Trust Sanger Institute”.
Where “and” joins values, the source holds several entries; their conditions need not be identical. Equal values may be shown once. Where a SMILES comes first, the peptide text is derived from it. The star is where a group is joined. Cbz = O=C(OCc1ccccc1)*

Key:
[1] = system: LB373-MEL-D; experiment: cells; format: functional, cell-based, Homo sapiens; details: lb373-mel-d;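 note: growth inhibition of the cell line, read out in a cell viability assay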
Description: SANGER: Inhibition of human LB373-MEL-D cell growth in a cell viability assay.

[2] = system: NCI-H1436; experiment: cells; format: functional, cell-based, Homo sapiens;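 note: growth suppression of human NCI-H1436 cells, determined with a cell viability readout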
Description: SANGER: Inhibition of human NCI-H1436 cell growth in a cell viability assay.

[3] = system: SR; experiment: cells; format: functional, cell-based, Homo sapiens; details: sr
Description: SANGER: Inhibition of human SR cell growth in a cell viability assay.

[4] = system: NB7; experiment: cells; format: functional, cell-based, Homo sapiens;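 note: growth inhibition of NB7 cells, read out with a cell viability assay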
Description: SANGER: Inhibition of human NB7 cell growth in a cell viability assay.

[5] = system: NCI-H1882; experiment: cells; format: functional, cell-based, Homo sapiens; details: nci-h1882;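 note: growth inhibition of the cell line, determined with a viability assay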
Description: SANGER: Inhibition of human NCI-H1882 cell growth in a cell viability assay.

[6] = system: LB647-SCLC; experiment: cells; format: functional, cell-based, Homo sapiens;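 note: cell growth inhibition, read out by a viability assay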
Description: SANGER: Inhibition of human LB647-SCLC cell growth in a cell viability assay.

[7] = system: K052; experiment: cells; format: functional, cell-based, Homo sapiens; details: k052;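 note: Read-out from a cell viability assay, IC50 reflecting suppression of K052 cell growth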
Description: SANGER: Inhibition of human K052 cell growth in a cell viability assay.

[8] = system: ST486; experiment: SANGER: Inhibition of human ST486 cell growth in a cell viability assay.; format: functional, cell-based
[9] = system: NCI-H1522; experiment: cells; format: functional, cell-based, Homo sapiens; details: nci-h1522;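 note: growth inhibition of NCI-H1522 cells, read out with a cell viability assay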
Description: SANGER: Inhibition of human NCI-H1522 cell growth in a cell viability assay.

[10] = system: EW-24; experiment: cells; format: functional, cell-based, Homo sapiens;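 note: human EW-24 cancer cell line, growth inhibition read out via a cell viability assay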
Description: SANGER: Inhibition of human EW-24 cell growth in a cell viability assay.

[11] = system: CESS; experiment: SANGER: Inhibition of human CESS cell growth in a cell viability assay.; format: functional, cell-based; details: cess
[12] = system: BL-70; experiment: SANGER: Inhibition of human BL-70 cell growth in a cell viability assay.; format: functional, cell-based; details: bl-70
[13] = system: IST-SL2; experiment: cells; format: functional, cell-based, Homo sapiens; details: ist-sl2;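 note: growth inhibition of human IST-SL2 cells, read out by a cell viability assay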
Description: SANGER: Inhibition of human IST-SL2 cell growth in a cell viability assay.

[14] = system: NCI-H2141; experiment: cells; format: functional, cell-based, Homo sapiens; details: nci-h2141;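 note: growth inhibition of human NCI-H2141 cells, read out with a cell viability assay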
Description: SANGER: Inhibition of human NCI-H2141 cell growth in a cell viability assay.

[15] = system: NCI-H322M; experiment: cells; format: functional, cell-based, Homo sapiens; details: nci-h322m;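 note: cell viability assay measuring inhibition of growth of human NCI-H322M cells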
Description: SANGER: Inhibition of human NCI-H322M cell growth in a cell viability assay.

[16] = system: KARPAS-422; experiment: cells; format: functional, cell-based, Homo sapiens; details: karpas-422
Description: SANGER: Inhibition of human KARPAS-422 cell growth in a cell viability assay.

[17] = system: NCI-H187; experiment: cells; format: functional, cell-based, Homo sapiens; details: nci-h187;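 note: growth inhibition of NCI-H187 cells, read out as cell viability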
Description: SANGER: Inhibition of human NCI-H187 cell growth in a cell viability assay.

[18] = system: 769-P; experiment: cells; format: functional, cell-based; details: Homo sapiens
Description: SANGER: Inhibition of human 769-P cell growth in a cell viability assay.

[19] = system: 647-V; experiment: cells; format: functional, cell-based; details: Homo sapiens;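 note: growth inhibition of 647-V cells, read out with a cell viability assay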
Description: SANGER: Inhibition of human 647-V cell growth in a cell viability assay.

[20] = system: A204; experiment: cells; format: functional, cell-based; details: Homo sapiens;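 note: growth inhibition of human A204 cells, read out with a cell viability assay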
Description: SANGER: Inhibition of human A204 cell growth in a cell viability assay.

[21] = system: Ca-Ski; experiment: cells; format: functional, cell-based; details: Homo sapiens;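 note: cell viability assay measuring inhibition of Ca-Ski cell growth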
Description: SANGER: Inhibition of human Ca-Ski cell growth in a cell viability assay.

[22] = system: PC-3; experiment: cells; format: functional, cell-based; details: Homo sapiens;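 note: cell viability assay measuring growth inhibition of PC-3 cells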
Description: SANGER: Inhibition of human PC-3 cell growth in a cell viability assay.

[23] = system: CaR-1; experiment: cells; format: functional, cell-based; details: Homo sapiens;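 note: growth inhibition of human CaR-1 cancer cells, read out with a cell viability assay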
Description: SANGER: Inhibition of human CaR-1 cell growth in a cell viability assay.

[24] = system: DK-MG; experiment: cells; format: functional, cell-based; details: Homo sapiens;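 note: growth inhibition of DK-MG cells, read out with a cell viability assay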
Description: SANGER: Inhibition of human DK-MG cell growth in a cell viability assay.

[25] = system: A-431; experiment: cells; format: functional, cell-based; details: Homo sapiens;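 note: growth inhibition of A-431 cells, determined with a cell viability read-out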
Description: SANGER: Inhibition of human A431 cell growth in a cell viability assay.

[26] = system: NCI-H661; experiment: cells; format: functional, cell-based; details: Homo sapiens;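 note: cell viability assay read-out, IC50 being the concentration that inhibits growth of the cells by half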
Description: SANGER: Inhibition of human NCI-H661 cell growth in a cell viability assay.

[27] = system: CAL-120; experiment: cells; format: functional, cell-based; details: Homo sapiens;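 note: cell growth inhibition, read out as cell viability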
Description: SANGER: Inhibition of human CAL-120 cell growth in a cell viability assay.

[28] = system: VM-CUB-1; experiment: cells; format: functional, cell-based; details: Homo sapiens;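 note: cell viability assay measuring growth inhibition of the human VM-CUB-1 cell line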
Description: SANGER: Inhibition of human VM-CUB-1 cell growth in a cell viability assay.

[29] = system: SW1783; experiment: cells; format: functional, cell-based; details: Homo sapiens
Description: SANGER: Inhibition of human SW1783 cell growth in a cell viability assay.

[30] = system: HT1197; experiment: cells; format: functional, cell-based, HT-1197; details: Homo sapiens
Description: SANGER: Inhibition of human HT-1197 cell growth in a cell viability assay.

[31] = system: IGROV-1; experiment: cells; format: functional, cell-based; details: Homo sapiens;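 note: reduction of IGROV-1 cell growth, read out with a viability assay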
Description: SANGER: Inhibition of human IGROV-1 cell growth in a cell viability assay.

[32] = system: SW756; experiment: cells; format: functional, cell-based; details: Homo sapiens;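 note: growth inhibition of human SW756 cells, read out with a cell viability assay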
Description: SANGER: Inhibition of human SW756 cell growth in a cell viability assay.

[33] = system: KYSE-140; experiment: cells; format: functional, cell-based; details: Homo sapiens;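 note: cell viability assay measuring growth inhibition in human KYSE-140 cells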
Description: SANGER: Inhibition of human KYSE-140 cell growth in a cell viability assay.

[34] = system: RVH-421; experiment: cells; format: functional, cell-based; details: Homo sapiens
Description: SANGER: Inhibition of human RVH-421 cell growth in a cell viability assay.

[35] = system: HGC-27; experiment: cells; format: functional, cell-based; details: Homo sapiens;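 note: growth inhibition of human HGC-27 cells, read out in a cell viability assay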
Description: SANGER: Inhibition of human HGC-27 cell growth in a cell viability assay.

[36] = system: NCI-H2170; experiment: cells; format: functional, cell-based; details: Homo sapiens;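 note: cell viability assay measuring growth inhibition of human NCI-H2170 cancer cells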
Description: SANGER: Inhibition of human NCI-H2170 cell growth in a cell viability assay.

[37] = system: AN3-CA; experiment: cells; format: functional, cell-based; details: Homo sapiens;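 note: growth inhibition of human AN3-CA cells measured by a cell viability assay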
Description: SANGER: Inhibition of human AN3-CA cell growth in a cell viability assay.

[38] = system: NCI-H2052; experiment: cells; format: functional, cell-based; details: Homo sapiens;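 note: growth inhibition of NCI-H2052 cells, read out with a cell viability assay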
Description: SANGER: Inhibition of human NCI-H2052 cell growth in a cell viability assay.

[39] = system: CAL-33; experiment: cells; format: functional, cell-based; details: Homo sapiens;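 note: growth inhibition of CAL-33 cells, read out with a cell viability assay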
Description: SANGER: Inhibition of human CAL-33 cell growth in a cell viability assay.

[40] = system: 639-V; experiment: cells; format: functional, cell-based; details: Homo sapiens;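 note: growth inhibition of 639-V cells, read out with a cell viability assay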
Description: SANGER: Inhibition of human 639-V cell growth in a cell viability assay.

[41] = system: MOLT-13; experiment: cells; format: functional, cell-based; details: Homo sapiens;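 note: IC50 for suppression of MOLT-13 cell growth, read out with a cell viability assay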
Description: SANGER: Inhibition of human MOLT-13 cell growth in a cell viability assay.

[42] = system: SK-HEP1; experiment: cells; format: functional, cell-based, SK-HEP-1; details: Homo sapiens;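 note: cell viability readout used to quantify reduction in proliferation of human SK-HEP-1 cells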
Description: SANGER: Inhibition of human SK-HEP-1 cell growth in a cell viability assay.

[43] = system: C-33-A; experiment: cells; format: functional, cell-based; details: Homo sapiens;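 note: cell viability assay measuring growth inhibition of C-33-A cells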
Description: SANGER: Inhibition of human C-33-A cell growth in a cell viability assay.

[44] = system: NCI-H596; experiment: cells; format: functional, cell-based; details: Homo sapiens;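 note: growth inhibition of NCI-H596 cells, read out with a cell viability assay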
Description: SANGER: Inhibition of human NCI-H596 cell growth in a cell viability assay.

[45] = system: SK-MEL-30; experiment: cells; format: functional, cell-based; details: Homo sapiens;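 note: growth inhibition of SK-MEL-30 cells, determined with a cell viability assay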
Description: SANGER: Inhibition of human SK-MEL-30 cell growth in a cell viability assay.

[46] = system: 8505C; experiment: cells; format: functional, cell-based; details: Homo sapiens
Description: SANGER: Inhibition of human 8505C cell growth in a cell viability assay.

[47] = system: SW48; experiment: cells; format: functional, cell-based; details: Homo sapiens;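 note: growth inhibition of SW48 cells, read out with a cell viability assay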
Description: SANGER: Inhibition of human SW48 cell growth in a cell viability assay.

[48] = system: SW780; experiment: cells; format: functional, cell-based; details: Homo sapiens;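 note: growth inhibition of the cells, read out with a cell viability assay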
Description: SANGER: Inhibition of human SW780 cell growth in a cell viability assay.

[49] = system: SBC-5; experiment: cells; format: functional, cell-based; details: Homo sapiens;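 note: cell viability assay read-out, IC50 is the concentration that inhibits growth of the cells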
Description: SANGER: Inhibition of human SBC-5 cell growth in a cell viability assay.

[50] = system: DMS-273; experiment: cells; format: functional, cell-based; details: Homo sapiens
Description: SANGER: Inhibition of human DMS-273 cell growth in a cell viability assay.

[51] = system: SAOS-2; experiment: cells; format: functional, cell-based; details: Homo sapiens;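 note: growth inhibition of human Saos-2 cells determined by a cell viability assay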
Description: SANGER: Inhibition of human Saos-2 cell growth in a cell viability assay.

[52] = system: HT-1376; experiment: cells; format: functional, cell-based; details: Homo sapiens
Description: SANGER: Inhibition of human HT-1376 cell growth in a cell viability assay.

[53] = system: SK-OV-3; experiment: cells; format: functional, cell-based; details: Homo sapiens;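 note: growth inhibition of SK-OV-3 human cells, read out with a cell viability assay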
Description: SANGER: Inhibition of human SK-OV-3 cell growth in a cell viability assay.

[54] = system: HCC1954; experiment: cells; format: functional, cell-based; details: Homo sapiens;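 note: growth inhibition of human HCC1954 cells, read out with a cell viability assay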
Description: SANGER: Inhibition of human HCC1954 cell growth in a cell viability assay.

[55] = system: HCC1395; experiment: cells; format: functional, cell-based; details: Homo sapiens;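 note: growth inhibition of HCC1395 cells, read out by a cell viability assay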
Description: SANGER: Inhibition of human HCC1395 cell growth in a cell viability assay.

[56] = system: SK-MEL3; experiment: cells; format: functional, cell-based, SK-MEL-3; details: Homo sapiens;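 note: growth inhibition of human SK-MEL-3 cells, read out with a cell viability assay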
Description: SANGER: Inhibition of human SK-MEL-3 cell growth in a cell viability assay.

Measured: IC50

CC(C)C[C@@H](C=O)NC(=O)[C@H](CC(C)C)NC(=O)[C@H](CC(C)C)NC(=O)OCc1ccccc1 [MG-132] (Cbz-Leu-Leu-Leu-aldehyde)
0.29 µM and > 1 µM: [7]
0.694 µM and > 1 µM: [12]
0.171 µM and > 1 µM: [11]
0.59 µM and > 1 µM: [5]
0.242 µM and > 1 µM: [1]
> 1 µM: [2]; Homo sapiens, NCI-H1436 | [2]; nci-h1436 | [3] | [4]; nb7 | [6]; Homo sapiens, LB647-SCLC | [6]; lb647-sclc | [8]; Homo sapiens, ST486 | [8]; st486 | [9] | [10]; Homo sapiens, EW-24 | [10]; ew-24 | [13] | [14] | [15] | [16] | [17]

NC1(c2ccc(-c3nc4ccn5c(=O)[nH]nc5c4cc3-c3ccccc3)cc2)CCC1 [MK-2206]
1.52 µM: [50]
0.552 µM: [31]
2.75 µM: [55]
> 4 µM: [18] | [19] | [21] | [22] | [23] | [24] | [25] | [26] | [27] | [29] | [30] | [32] | [33] | [36] | [38] | [39] | [40] | [41] | [42] | [43] | [44] | [45] | [46] | [47] | [48] | [49] | [51] | [52] | [53] | [54] | [56]
3.82 µM: [34]
0.568 µM: [35]
3.62 µM: [37]
2.39 µM: [28]
2.84 µM: [20]
0.824 µM: [4]; Homo sapiens, NB7
